According to US7435822B2, “3-(diheteroarylmethylene)-8-azabicyclo[3.2.1]octane and 3-((aryl)(heteroaryl)methylene)-8-azabicyclo[3.2.1]octane derivatives” (Janssen Pharmaceutica N.V., priority 2004, dated 2008):
Read-outs that look alike come from different tables or passages of the source.

Assays:
δ-opioid receptor = target: T1, δ-opioid receptor (Rattus norvegicus, UniProt P33533); experiment: Rat brain δ-opioid receptor binding assay; settings: for μ/δ (ratio of the μ-opioid receptor binding to the δ-opioid receptor binding): ratio of Ki μ to Ki δ, rat brain
T1 construct: the forebrains are homogenized in Tris buffer in a Teflon®-glass homogenizer; from tissue; host or cells: rat (male Wistar) forebrain, particulate membrane preparation
Description: Rat Brain δ-Opioid Receptor Binding Assay
Male, Wistar rats (150-250 g, VAF, Charles River, Kingston, N.Y.) are killed by cervical dislocation, and their brains removed and placed immediately in ice cold Tris HCl buffer (50 mM, pH 7.4). The forebrains are separated from the remainder of the brain by a coronal transection, beginning dorsally at the colliculi and passing ventrally through the midbrain-pontine junction. After dissection, the forebrains are homogenized in Tris buffer in a Teflon®-glass homogenizer. The homogenate is diluted to a concentration of 1 g of forebrain tissue per 100 mL Tris buffer and centrifuged at 39,000×G for 10 min. The pellet is resuspended in the same volume of Tris buffer with several brief pulses from a Polytron homogenizer. This particulate preparation is used for the δ-opioid binding assays. […] The tubes and filters are rinsed three times with 4 mL of 10 mM HEPES (pH 7.4), and the radioactivity associated with the filter circles determined using Formula 989 scintillation fluid (New England Nuclear, Boston, Mass.) in a scintillation counter.
(§1) The data are used to calculate either the % inhibition compared to control binding (when only a single concentration of test compound is evaluated) or a Ki value (when a range of concentrations is tested).
% Inhibition was calculated as follows: […]
Ki value is calculated using the LIGAND (Munson, P. J. and Rodbard, D., Anal. Biochem. 107: 220-239,1980) data analysis program.

μ-opioid receptor = target: T2, μ-opioid receptor (Rattus norvegicus, UniProt P33535); experiment: Rat brain μ-opioid receptor binding assay
T2 construct: the forebrains are homogenized in Tris buffer in a Teflon®-glass homogenizer; from tissue; host or cells: rat (male Wistar) forebrain, particulate membrane preparation
Description: Rat Brain μ-Opioid Receptor Binding Assay
Male, Wistar rats (150-250 g, VAF, Charles River, Kingston, N.Y.) are killed by cervical dislocation and their brains removed and placed immediately in ice cold Tris HCl buffer (50 mM, pH 7.4). The forebrains are separated from the remainder of the brain by a coronal transection, beginning dorsally at the colliculi and passing ventrally through the midbrain-pontine junction. After dissection, the forebrains are homogenized in Tris buffer in a Teflon®-glass homogenizer. The homogenate is diluted to a concentration of 1 g of forebrain tissue per 100 mL Tris buffer and centrifuged at 39,000×G for 10 min. The pellet is resuspended in the same volume of Tris buffer with several brief pulses from a Polytron homogenizer. This particulate preparation is used for the μ-opioid binding assays.
as §1
% Inhibition is calculated as follows: […]

[1] = rat forebrain particulate preparation, [3H]DAMGO, 25° C., read-out: Ki (nM) μ
[2] = rat forebrain particulate preparation, [3H]DPDPE, 25° C., read-out: Ki (nM) δ

T1 sequence (P33533 whole entry): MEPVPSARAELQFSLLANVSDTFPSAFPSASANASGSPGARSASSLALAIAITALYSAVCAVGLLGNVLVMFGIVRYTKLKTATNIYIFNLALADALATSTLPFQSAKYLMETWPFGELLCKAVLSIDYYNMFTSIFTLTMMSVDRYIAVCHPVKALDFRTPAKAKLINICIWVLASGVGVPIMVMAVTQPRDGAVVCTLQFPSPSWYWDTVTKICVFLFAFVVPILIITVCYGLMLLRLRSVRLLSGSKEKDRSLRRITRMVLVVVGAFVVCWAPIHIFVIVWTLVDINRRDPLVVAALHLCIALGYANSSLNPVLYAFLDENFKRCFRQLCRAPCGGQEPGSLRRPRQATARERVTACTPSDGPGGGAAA
T2 sequence (P33535 whole entry): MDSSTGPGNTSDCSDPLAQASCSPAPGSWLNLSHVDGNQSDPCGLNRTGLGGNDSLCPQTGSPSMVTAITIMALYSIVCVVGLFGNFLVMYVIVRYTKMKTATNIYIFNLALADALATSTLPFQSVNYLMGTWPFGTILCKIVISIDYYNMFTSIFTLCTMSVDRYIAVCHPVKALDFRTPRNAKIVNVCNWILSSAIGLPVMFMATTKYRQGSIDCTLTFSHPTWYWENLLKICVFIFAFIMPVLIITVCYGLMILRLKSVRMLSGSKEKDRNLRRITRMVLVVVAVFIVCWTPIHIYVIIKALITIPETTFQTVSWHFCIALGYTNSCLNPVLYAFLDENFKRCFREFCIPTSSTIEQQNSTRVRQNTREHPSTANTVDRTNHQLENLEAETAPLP

| Compound | Ki (δ-opioid receptor) | Ki (μ-opioid receptor) | μ/δ (ratio of the μ-opioid receptor binding to the δ-opioid receptor binding) (δ-opioid receptor) | Ki (μ-opioid receptor; [1]) | Ki (δ-opioid receptor; [2]) |
| --- | --- | --- | --- | --- | --- |
| Cc1ccsc1CN1C2CCC1CC(=C(c1ccccc1)c1ccsc1)C2 [Example 8, 8-(3-Methyl-thiophen-2-ylmethyl)-3-(phenyl-thiophen-3-yl-methylene)-8-aza-bicyclo[3.2.1]octane] | 38.3 nM | – | – | – | – |
| Cc1ccccc1CN1C2CCC1CC(=C(c1ccc(O)cc1)c1ccsc1)C2 [Example 40, 4-{[8-(2-Methyl-benzyl)-8-aza-bicyclo[3.2.1]oct-3-ylidene]-thiophen-3-yl-methyl}-phenol] | 35.7 nM | 64.8 nM | 1.82 | – | – |
| Oc1cccc(C(=C2CC3CCC(C2)N3)c2ccsc2)c1 [Example 20, 3-[(8-Aza-bicyclo[3.2.1]oct-3-ylidene)-thiophen-3-yl-methyl]-phenol] | 6.27 nM | 24.7 nM | 3.93 | – | – |
| CC(C)=CCN1C2CCC1CC(=C(c1ccsc1)c1cccc(O)c1)C2 [Example 21, 3-{[8-(3-Methyl-but-2-enyl)-8-aza-bicyclo[3.2.1]oct-3-ylidene]-thiophen-3-yl-methyl}-phenol] | 0.91 nM | 7.1 nM | 7.8 | – | – |
| Cc1ccsc1CN1C2CCC1CC(=C(c1ccsc1)c1cccc(O)c1)C2 [Example 27, 3-{[8-(3-Methyl-thiophen-2-ylmethyl)-8-aza-bicyclo[3.2.1]oct-3-ylidene]-thiophen-3-yl-methyl}-phenol] | 5.85 nM | 30.4 nM | 5.20 | – | – |
| C=CCN1C2CCC1CC(=C(c1ccsc1)c1cccc(O)c1)C2 [Example 22, 3-[(8-Allyl-8-aza-bicyclo[3.2.1]oct-3-ylidene)-thiophen-3-yl-methyl]-phenol] | 1.69 nM | 26 nM | 15.6 | – | – |
| Oc1ccc(C(=C2CC3CCC(C2)N3Cc2ccccc2Cl)c2ccsc2)cc1 [Example 41, 4-{[8-(2-Chloro-benzyl)-8-aza-bicyclo[3.2.1]oct-3-ylidene]-thiophen-3-yl-methyl}phenol] | 12.5 nM | 36.5 nM | 2.91 | – | – |
| Cc1ccsc1CN1C2CCC1CC(=C(c1ccc(O)cc1)c1ccsc1)C2 [Example 43, 4-{[8-(3-Methyl-thiophen-2-ylmethyl)-8-aza-bicyclo[3.2.1]oct-3-ylidene]-thiophen-3-yl-methyl}-phenol] | 31.4 nM | – | 5.94 | 187 nM | – |
| Cc1ccc(CN2C3CCC2CC(=C(c2ccc(O)cc2)c2ccsc2)C3)s1 [Example 44, 4-{[8-(5-Methyl-thiophen-2-ylmethyl)-8-aza-bicyclo[3.2.1]oct-3-ylidene]-thiophen-3-yl-methyl}-phenol] | 9.04 nM | 75.2 nM | 8.33 | – | – |
| Oc1ccc(C(=C2CC3CCC(C2)N3Cc2cccs2)c2ccsc2)cc1 [Example 42, 4-[Thiophen-3-yl-(8-thiophen-2-ylmethyl-8-aza-bicyclo[3.2.1]oct-3-ylidene) -methyl]phenol] | 2.92 nM | 89.2 nM | 30.54 | – | – |
| CC(C)=CCN1C2CCC1CC(=C(c1ccccc1)c1ccsc1)C2 [Example 3, 8-(3-Methyl-but-2-enyl)-3-(phenyl-thiophen-3-yl-methylene)-8-aza-bicyclo[3.2.1]octane] | 21.1 nM | – | 8.37 | 177 nM | – |
| c1ccc(C(=C2CC3CCC(C2)N3Cc2cccs2)c2ccsc2)cc1 [Example 7, 3-(Phenyl-thiophen-3-yl-methylene)-8-thiophen-2-ylmethyl-8-aza-bicyclo[3.2.1]octane] | 62.6 nM | – | 6.69 | 418 nM | – |
| Clc1ccccc1CN1C2CCC1CC(=C(c1ccccc1)c1ccsc1)C2 [Example 6, 8-(2-Chloro-benzyl)-3-(phenyl-thiophen-3-yl-methylene)-8-aza-bicyclo[3.2.1]octane] | – | – | – | 1310 nM | 229 nM |
| Cc1ccc(CN2C3CCC2CC(=C(c2ccccc2)c2ccsc2)C3)s1 [Example 9, 8-(5-Methyl-thiophen-2-ylmethyl)-3-(phenyl-thiophen-3-yl-methylene)-8-aza-bicyclo[3.2.1]octane] | 38.8 nM | – | 10.66 | 413 nM | – |
| c1ccc(C(=C2CC3CCC(C2)N3)c2ccsc2)cc1 [Example 2, 3-(Phenyl-thiophen-3-yl-methylene)-8-aza-bicyclo[3.2.1]octane] | 68 nM | – | – | – | – |
| Oc1cccc(C(=C2CC3CCC(C2)N3CCc2ccccc2)c2ccsc2)c1 [Example 23, 3-[(8-Phenethyl-8-aza-bicyclo[3.2.1]oct-3-ylidene)-thiophen-3-yl-methyl]-phenol] | – | 37 nM | – | – | 437 nM |
| Cc1ccccc1CN1C2CCC1CC(=C(c1ccsc1)c1cccc(O)c1)C2 [Example 24] | 5.96 nM | 48.6 nM | 8.15 | – | – |
| Oc1cccc(C(=C2CC3CCC(C2)N3Cc2ccccc2Cl)c2ccsc2)c1 [Example 25, 3-{[8-(2-Chloro-benzyl)-8-aza-bicyclo[3.2.1]oct-3-ylidene]-thiophen-3-yl-methyl}-phenol] | 1.69 nM | 34.2 nM | 20.22 | – | – |
| Cc1ccccc1CN1C2CCC1CC(=C(c1ccccc1)c1ccsc1)C2 [Example 5, 8-(2-Methyl-benzyl)-3-(phenyl-thiophen-3-yl-methylene)-8-aza-bicyclo[3.2.1]octane] | – | – | 21.28 | 4110 nM | 193 nM |
| c1ccc(CCN2C3CCC2CC(=C(c2ccccc2)c2ccsc2)C3)cc1 [Example 4, 8-Phenethyl-3-(phenyl-thiophen-3-yl-methylene)-8-aza-bicyclo[3.2.1]octane] | – | – | 0.29 | 265 nM | 903 nM |
| Oc1cccc(C(=C2CC3CCC(C2)N3Cc2cccs2)c2ccsc2)c1 [Example 26, 3-[Thiophen-3-yl-(8-thiophen-2-ylmethyl-8-aza-bicyclo[3.2.1]oct-3-ylidene)-methyl]-phenol] | 0.17 nM | 5.4 nM | 31.78 | – | – |
| Cc1ccc(CN2C3CCC2CC(=C(c2ccsc2)c2cccc(O)c2)C3)s1 [Example 28, 3-{[8-(5-Methyl-thiophen-2-ylmethyl)-8-aza-bicyclo[3.2.1]oct-3-ylidene]-thiophen-3-yl-methyl}-phenol] | 1.65 nM | 12.6 nM | 7.65 | – | – |
| Oc1ccc(C(=C2CC3CCC(C2)N3CCc2ccccc2)c2ccsc2)cc1 [Example 39] | 397 nM | 166 nM | 0.42 | – | – |
| CC(C)=CCN1C2CCC1CC(=C(c1ccc(O)cc1)c1ccsc1)C2 [Example 38, 4-{[8-(3-Methyl-but-2-enyl)-8-aza-bicyclo[3.2.1]oct-3-ylidene]-thiophen-3-yl-methyl}-phenol] | 5.37 nM | 93 nM | 17.3 | – | – |
